Where two headings read alike, the source gives them in different places.
Assays:
[1] = cited from earlier work
[2] = system: chronic renal failure patients with primary glomerular disease and nephrosclerosis as primary diseases; experiment: CASSIOPEIR trial: time to dialysis shift or renal death, hazard ratio of drug and placebo by Cox proportional hazard model; type: in vivo, human
Description: For the analysis, the full analysis set and Intention-To-Treat (ITT) defined in Nakamoto et al., BMC Nephrology were used, and the hazard ratio (HR) of the drug and placebo was calculated by the Cox proportional hazard model. A lower HR value indicates a higher effectiveness of the drug.
A data set obtained in the CASSIOPEIR trial according to the protocol described in Nakamoto et al., BMC Nephrology was used. Summarizing the protocol of the CASSIOPEIR trial, the targets are chronic renal failure patients with primary glomerular disease and nephrosclerosis as primary diseases, and a BPS sustained-release tablet, TRK-100STP (the same preparation as Careload (trademark) LA Tablets 60 μg (Toray Industries, Inc.)), is administered at 120 μg or 240 μg as BPS per day in two divided doses, morning and evening. Further, this trial was a multicenter, randomized, placebo-controlled, double-blind comparative trial, and carried out in Japan, China, South Korea, Taiwan, Hong Kong, Malaysia, and Thailand.
The duration of drug administration was 2 to 4 years, and the number of patients underwent randomization was 892, and the trial was conducted in 160 sites. Further, the ITT population was the primary analysis target population. The primary endpoint was the time to occurrence of the renal composite endpoint defined by doubling of serum creatinine or end-stage renal disease. The guidelines (2013) of the Japanese Society for Dialysis Therapy were used as a reference to determine the time to shift to dialysis. Specifically, according to the policy that “even with adequate conservative treatment, progressive deterioration of renal function is observed, and the need arises when GFR<15 ml/min/1.73 m^2. However, the introduction of actual blood dialysis is determined by comprehensively judging the symptoms of renal failure, activity in daily life, and nutritional status, and a decision is made when these cannot be avoided except by dialysis therapy,” and finally based on the judgment of the investigator, the time to shift to dialysis and the time to reach renal death were determined. The term “dialysis” as used herein includes peritoneal dialysis, in addition to blood dialysis.

[3] = system: chronic renal failure patients with primary glomerular disease and nephrosclerosis as primary diseases; conditions: whole trial, serum creatinine 2.0 to 4.5 mg/dl at entry; 120 μg or 240 μg BPS administration group; cited from earlier work
[4] = system: chronic renal failure patients with primary glomerular disease and nephrosclerosis as primary diseases; conditions: twice a day for 6 months, cited from earlier work
[5] = system: patients with chronic renal failure; conditions: cited from earlier work
[6] = system: renal failure model rats; conditions: rat, in vivo; cited from earlier work
[7] = system: cats with spontaneous chronic kidney disease; conditions: in vivo; cited from earlier work
[8] = system: chronic renal failure rat models; conditions: combined use with ARBs and ACEIs; cited from earlier work

Which “Cmax of BPS-314d in plasma relative to BPS” value ([1]; when BPS is administered to a human) does the source give for `CC#CC[C@H](C)[C@H](O)/C=C/[C@@H]1[C@H]2c3cccc(CCCC(=O)[O-])c3O[C@H]2C[C@H]1O.[Na+]` [BPS-314d, sodium (+)-(1R,2R,3aS,8b S)-2,3,3a,8b-tetrahydro-2-hydroxy-1-[(E)-(3S,4S)-3-hydroxy-4-methyl-1-octen-6-ynyl]-1H-cyclopenta[b]benzofuran-5-butyrate] here?
The value was “¼”.

And the “AUC of BPS-314d in plasma relative to BPS” value ([1]; when BPS is administered)?
Its value is “¼”.

Which results are given for `CC#CCC(C)[C@H](O)/C=C/[C@@H]1[C@H]2c3cccc(CCCC(=O)[O-])c3O[C@H]2C[C@H]1O.[Na+]` (stereo partly drawn) [BPS, Beraprost sodium]?
HR, time to dialysis shift ([2]; 240 μg per day, ACEI used in combination (except patients who further used ARB), all subjects, P value 0.0994): 0.60; HR, time to dialysis shift ([2]; 240 μg per day, ACEI used in combination, Japanese patients, P value 0.0882): 0.49; HR, time to dialysis shift ([2]; 240 μg, ARB in combination, no ACEI, Japanese partial population, P value 0.3597): 0.79; HR, time to dialysis shift ([2]; 240 μg, ARB in combination, no ACEI, P value 0.5401): 0.88; HR, dialysis shift ([2]; Japanese patients, BMI less than 23, 240 μg, P value 0.0048): 0.38; HR, dialysis shift ([2]; Japanese patients, BMI less than 23 and serum albumin less than 3.8 g/dl): 0.29; HR, dialysis shift ([2]; Japanese patients, serum albumin less than 3.8 g/dl, 240-μg administration, P value 0.1567): 0.50; HR, time to dialysis shift ([2]; plasma BPS 50 pg/ml or more confirmed, eGFR 15 or more and less than 45 ml/min/1.73 m^2 (CKD stages 3b and 4), P value 0.0368): 0.59; HR, time to dialysis shift ([2]; plasma BPS 50 pg/ml or more confirmed, serum creatinine less than 3 mg/dl, P value 0.0251): 0.46; renal composite endpoints and time to shift to dialysis [3]: not minimized at all; Cmax and AUC in renal damage patients compared to healthy subjects ([1]; Shimamura et al.): elevated; half-life in blood ([1]; in vivo): about 1 hour; increase in serum creatinine level during the administration period compared to before the start of administration ([4]; 120-μg group): 1.069 times; increase in serum creatinine level during the administration period compared to before the start of administration ([4]; 240-μg group): 1.064 times; slope of the time-varying straight line of the reciprocal of the serum creatinine level ([5]; 20 μg per dose three times a day for 6 months): becomes gentle; shift to dialysis ([5]; serum creatinine 1.9 mg/dl or less before start, 20 μg three times a day): did not shift to dialysis for up to 54 months; effect of BPS ([5]; serum creatinine 2.2 mg/dl or more (within the 1.9 to 2.8 mg/dl group)): not observed; time to shift to dialysis ([5]; serum creatinine 2.8 mg/dl or more before start, 20 μg three times a day): ≤ 24 months; renal tissue damage [6]: reduces renal tissue damage; serum creatinine levels [6]: suppresses the increase in serum creatinine levels; renal function [7]: suppresses the decline in renal function; effect of angiotensin inhibitors to suppress the progression of renal damage (increase in serum creatinine levels) [8]: enhances the effect of the angiotensin inhibitors

Reference: patent publication US20230022200A1, “DRUG THAT PREVENTS DIALYSIS SHIFT OR RENAL DEATH” (Toray Industries, Inc., priority 2019, published 2023)
